Assay results as given in EPA's ToxValDB 9.5.
Converted amounts (≈) assume the structure as drawn.

Experiments:
Gallus gallus = details: oral, diet
Daphnia magna = details: acute, mortality
Pontoscolex corethrurus = details: acute; mortality
Bovidae = details: repeat dose other; oral; hematological
Rattus norvegicus = details: for LD50: acute, mortality
Sus scrofa = details: oral, diet, Not specified
Canidae = details: Dog Other; for NOAEL: oral
Colinus virginianus = details: for LC50 / LD50: acute, mortality
Apis mellifera = details: acute; oral; unspecified; mortality
Tagia sp. = details: acute; mortality
Anas platyrhynchos = details: short-term; oral; feed; mortality
[1] = repeat dose other
[2] = acute, duration: 96 hours, mortality
[3] = chronic, duration: 21 months, M, hematological
[4] = chronic, duration: 23 months, F, hematological
[5] = subchronic, duration: 90 days, F, clinical chemistry
[6] = subchronic, duration: 90 days, oral, hematological

`CC(O)(Cn1cncn1)c1ccc(Oc2ccc(Cl)cc2)cc1C(F)(F)F` (stereo not drawn) [Mefentrifluconazole] gave an NOAEL (Mus musculus; chronic, duration: 18 months, organ weight) of 3.5 mg/kg-day, an NOAEL (Mus musculus; subchronic, duration: 90 days, organ weight) of 2 mg/kg-day and an NOAEL (Oryctolagus sp.; developmental, development) of 15 mg/kg-day.
For `NC(N)=NCC(=O)O` [N-(Aminoiminomethyl)glycine], the LEL (Gallus gallus; subchronic, duration: 35 days, hematological) was 1500 mg/kg-day.
In the case of `CC/C=C\CCCCC=O` [(Z)-Non-6-enal], the LC50 (Daphnia magna) is reported as 8 mg/L (≈ 57.1 µM) and the LC50 (Pontoscolex corethrurus) is reported as 191 mg/kg.
In the case of `O=N[O-]` [Nitrite ion], the NOAEL (Bovidae) is reported as 3.3 mg/kg-day, the NOEL (Rattus norvegicus; chronic, duration: 2 years, oral, drinking water, gross pathology) is reported as 6.7 mg/kg-day and the NOAEL (Sus scrofa; repeat dose other, hematological) is reported as 3.3 mg/kg-day.
Work on `CCc1ncc(C)nc1CC` [Pyrazine, 2,3-diethyl-5-methyl-] yielded an LC50 (Pontoscolex corethrurus) of 228 mg/kg.
For `CCOc1ccc2c(c1)C(C)=CC(C)(C)N2` [Ethoxyquin], the NOEL (Canidae; subchronic, duration: 90 days, clinical signs) was 2 mg/kg-day, the LC50 (Colinus virginianus; oral, diet) was over 2420 mg/kg-day and the NOEC (Colinus virginianus; short-term, oral, diet) was 1500 mg/kg-day. It also gave an LC50 (Oncorhynchus mykiss; [2]) of 18 mg/L (≈ 82.8 µM) and an LD50 (Rattus norvegicus; oral) of 1730 mg/kg-day.
`CC(C)C1C2CCC1c1c(NC(=O)c3cn(C)nc3C(F)F)cccc12` (stereo not drawn) [Isopyrazam] gave an LC50 (Colinus virginianus; oral, diet) of 1310 mg/kg-day, an LD50 (Colinus virginianus; oral) of over 2000 mg/kg-day and an NOEC (Colinus virginianus; reproduction developmental) of 32.5 mg/kg-day. For the same compound, the LD50 (Rattus norvegicus; oral) was 2000 mg/kg-day, the NOEL (Rattus norvegicus; chronic) was 41 mg/kg-day and the LOAEL (Rattus norvegicus; chronic, duration: 2 years, organ weight) was 5.5 mg/kg-day. The NOAEL (Rattus norvegicus; developmental, development) was 20 mg/kg-day and the NOAEL (Rattus norvegicus; reproduction developmental, duration: 2 years, body weight) was 8 mg/kg-day.
Work on `CCN(CC)c1ccc(C(=C2C=CC(=[N+](CC)CC)C=C2)c2cc(O)c(S(=O)(=O)[O-])cc2S(=O)(=O)[O-])cc1.[Na+]` [C.I. Food Blue 5:2] yielded an NOAEL (Mus musculus; [3]) of 500 mg/kg-day and an NOAEL (Mus musculus; [4]) of 500 mg/kg-day.
Compound `C[C@@H]1Cc2c(Cl)cc(C(=O)N[C@@H](Cc3ccccc3)C(=O)O)c(O)c2C(=O)O1` [Ochratoxin A] has an LEL (Canidae; short-term, duration: 14 days, histopathology: nonneoplastic) of 0.2 mg/kg-day, an LEL (Gallus gallus; repeat dose other, organ weight) of 0.5 mg/kg-day and an LOAEL (Sus scrofa; [5]) of 0.008 mg/kg-day. For the same compound, the LOEL (Sus scrofa; [5]) was 0.008 mg/kg-day.
In the case of `COC(=O)CCC(=O)O[C@H]1CC(C)(C)C(/C=C/C(C)=C/C=C/C(C)=C/C=C/C=C(C)/C=C/C=C(C)/C=C/C2=C(C)C(=O)[C@@H](OC(=O)CCC(=O)OC)CC2(C)C)=C(C)C1=O` [Astaxanthin dimethylsuccinate], the NOAEL (Mus musculus; chronic, duration: 80 weeks, oral, body weight) is reported as 14 mg/kg-day and the LEL (Oncorhynchus mykiss; chronic/long-term, duration: 8 weeks, oral, feed, no effects) is reported as 908 mg/kg.
Compound `CCc1nccnc1OC` [Pyrazine, 2-ethyl-3-methoxy-] has an LC50 (Pontoscolex corethrurus) of 243 mg/kg.
With `CCc1nc(C)cs1` [Thiazole, 2-ethyl-4-methyl-] the LC50 (Pontoscolex corethrurus) was 193 mg/kg.
`CC(C)O` [Isopropanol] gave an NOAEL (Oryctolagus sp.; reproduction developmental, duration: 13 days, oral, gavage, F, New Zealand, mortality) of 240 mg/kg-day.
Compound `Oc1cccc2cccnc12` [8-Hydroxyquinoline] has an LD50 (Apis mellifera) of over 68.6 µg/piece, an LD50 (Colinus virginianus; oral, diet) of over 1070 mg/kg-day and an LD50 (Colinus virginianus; oral) of 311 mg/kg. It also gave an LD50 (Mus musculus; acute, oral, mortality) of 177 mg/kg, an LC50 (Oncorhynchus mykiss; [2]) of 2 mg/L (≈ 13.8 µM) and an NOAEL (Oryctolagus sp.; developmental, development) of 5 mg/kg-day. It also gave an NOAEL (Rattus norvegicus; chronic, duration: 2 years, body weight) of 73.3 mg/kg-day, an NOAEL (Rattus norvegicus; [6]) of 97.7 mg/kg-day and an LC50 (Tagia sp.) of over 409 mg/kg.
In the case of `COC(=O)[C@H](Cc1ccccc1)NC(=O)[C@H](CC(=O)O)NCCCc1ccc(OC)c(O)c1.O`, the NOAEL (Oryctolagus sp.; reproduction developmental, duration: 22 days, oral, gavage, F, New Zealand, clinical signs) is reported as 500 mg/kg-day.
Work on `CC(=O)c1cc(C)sc1C` [3-Acetyl-2,5-dimethylthiophene] yielded an LC50 (Daphnia magna) of 6.95 mg/L (≈ 45.1 µM).
Compound `c1ccc(Nc2ccccc2)cc1` [Diphenylamine] has an LC50 (Anas platyrhynchos) of 2290 mg/kg-day, an NOAEL (Canidae; chronic, duration: 1 years, clinical chemistry) of 10 mg/kg-day and an NOAEL (Canidae; chronic, duration: 1 years, hematological) of 10 mg/kg-day. For the same compound, the NOAEL (Canidae; subchronic, duration: 90 days, clinical chemistry) was 10 mg/kg-day, the NOAEL (Canidae; subchronic, duration: 90 days, hematological) was 10 mg/kg-day and the LD50 (Colinus virginianus; oral) was over 2250 mg/kg-day. It also gave an NOEC (Daphnia magna; duration: 48 hours) of under 0.38 mg/L, an LC50 (Oncorhynchus mykiss; [2]) of 2.2 mg/L (≈ 13 µM) and an NOEC (Oncorhynchus mykiss; [2]) of 0.71 mg/L. It also gave an NOAEL (Rattus norvegicus; chronic, duration: 2 years, hematological) of 7.5 mg/kg-day, an NOAEL (Rattus norvegicus; subchronic, duration: 90 days, oral, clinical chemistry) of 9.6 mg/kg-day and an NOAEL (Rattus norvegicus; [6]) of 9.6 mg/kg-day.
Work on `CCO` [Ethanol] yielded an LC50 (Oncorhynchus mykiss; acute, duration: 24 hours, mortality) of 11200 mg/L (≈ 243000 µM) and an NOAEL (Rattus norvegicus; subchronic, duration: 90 days, oral, gavage, organ weight) of 1730 mg/kg-day.
`CCCCCCCCC(=O)NCc1ccc(O)c(OC)c1` [N-Vanillylnonanamide] showed an NOEL [1] of 8.4 mg/kg-day and an NOAEL (Rattus norvegicus; subchronic, duration: 90 days, oral, M/F) of 8.4 mg/kg-day.
Compound `CCN(CC)c1ccc(C(=C2C=CC(=[N+](CC)CC)C=C2)c2cc(O)c(S(=O)(=O)[O-])cc2S(=O)(=O)[O-])cc1.CCN(CC)c1ccc(C(=C2C=CC(=[N+](CC)CC)C=C2)c2cc(O)c(S(=O)(=O)[O-])cc2S(=O)(=O)[O-])cc1.[Ca+2]` [Acid Blue 3] has an NOAEL (Mus musculus; [3]) of 500 mg/kg-day and an NOAEL (Mus musculus; [4]) of 500 mg/kg-day.
